In PMC4965013, “Open Source Drug Discovery with the Malaria Box Compound Collection for Neglected Diseases and Beyond” (PLoS Pathogens, 2016):
Each block holds one compound with its values, some of them ahead of it.

What was measured:
P. falciparum = assay: EC50 listed in S2 Table Metabolomics (used to set the concentration tested); format: cell-based; conditions: Plasmodium falciparum; EC50 used for Factor_XEC50 in metabolomics; read-out: EC50_nM
[1] = tested on: P. falciparum 3D7 trophozoites; assay: Metabolomic fingerprint profiling LC-MS; format: cell-based, Plasmodium falciparum; parameters: UDP-D-glucose / ADP-D-glucose: unit not given here; conditions: for Acetyllysine / N-acetyl-L-ornithine / N-carbamoyl-L-aspartate / NADPH / dAMP / dCMP / dTDP / dTMP / dTTP / dihydroorotate / orotate / DLH / DLS/SDL/SID / PD / PEE / PVNF / 3-phosphoglycerate / ADP-D-glucose / ATP / CDP / D-sedoheptulose-1/7-phosphate / FAD / GMP / NAD+ / NADP+ / Octoluse Bisphosphate / Pyroglutamic acid / UDP-D-glucose / UDP-D-glucuronate / UDP-N-acetyl-glucosamine / UDP / UMP / UTP / a-ketoglutarate / citrate/isocitrate / cytidine / dATP / dGMP/AMP / fumarate / glucose-1/6-phosphate / glycerate / guanine / guanosine / hypoxanthine / indole / inosine / nicotinate / ornithine / phosphoenolpyruvate / pyruvate / ribose-phosphate / sarcosine/alanine / sn-glycerol-3-phosphate / succinate/methylmalonic acid / uridine / xanthosine: S2 Table Metabolomics; for Acetyllysine: metabolite Acetyllysine; for N-acetyl-L-ornithine: metabolite N-acetyl-L-ornithine; for N-carbamoyl-L-aspartate: metabolite N-carbamoyl-L-aspartate; for NADPH: metabolite NADPH; for dAMP: metabolite dAMP; for dCMP: metabolite dCMP; for dTDP: metabolite dTDP; for dTMP: metabolite dTMP; for dTTP: metabolite dTTP; for dihydroorotate: metabolite dihydroorotate; for orotate: metabolite orotate; for DLH: peptide DLH; for DLS/SDL/SID: peptide DLS/SDL/SID; for PD: peptide PD; for PEE: peptide PEE; for PVNF: peptide PVNF; for 3-phosphoglycerate: metabolite 3-phosphoglycerate; for ADP-D-glucose: metabolite ADP-D-glucose; for ATP: metabolite ATP; for CDP: metabolite CDP; for CDP / D-sedoheptulose-1/7-phosphate / GMP / Octoluse Bisphosphate / UDP / UMP / UTP / citrate/isocitrate / dGMP/AMP / fumarate / glucose-1/6-phosphate / glycerate / guanine / guanosine / inosine / pyruvate / sarcosine/alanine / succinate/methylmalonic acid / uridine / xanthosine: change in metabolite level after compound treatment; for D-sedoheptulose-1/7-phosphate: metabolite D-sedoheptulose-1/7-phosphate; for FAD: metabolite FAD; for GMP: metabolite GMP; for NAD+: metabolite NAD+; for NADP+: metabolite NADP+; for Octoluse Bisphosphate: metabolite Octoluse Bisphosphate; for Pyroglutamic acid: metabolite Pyroglutamic acid; for UDP-D-glucose: metabolite UDP-D-glucose; for UDP-D-glucuronate: metabolite UDP-D-glucuronate; for UDP-N-acetyl-glucosamine: metabolite UDP-N-acetyl-glucosamine; for UDP: metabolite UDP; for UMP: metabolite UMP; for UTP: metabolite UTP; for a-ketoglutarate: metabolite a-ketoglutarate; for citrate/isocitrate: metabolite citrate/isocitrate; for cytidine: metabolite cytidine; for dATP: metabolite dATP; for dGMP/AMP: metabolite dGMP/AMP; for fumarate: metabolite fumarate; for glucose-1/6-phosphate: metabolite glucose-1/6-phosphate; for glycerate: metabolite glycerate; for guanine: metabolite guanine; for guanosine: metabolite guanosine; for hypoxanthine: metabolite hypoxanthine; for indole: metabolite indole; for inosine: metabolite inosine; for 2_3-Diphosphoglyceric acid / 4-phosphopantothenate / 6-phospho-D-gluconate / FMN / IMP / Pyrophosphate / Sedoheptoluse bisphosphate / cyclic-AMP / glutathione disulfide / lactate / myo-inositol: metabolite level change after treatment; for nicotinate: metabolite nicotinate; for ornithine: metabolite ornithine; for phosphoenolpyruvate: metabolite phosphoenolpyruvate; for pyruvate: metabolite pyruvate; for ribose-phosphate: metabolite ribose-phosphate; for sarcosine/alanine: metabolite sarcosine/alanine; for sn-glycerol-3-phosphate: metabolite sn-glycerol-3-phosphate; for succinate/methylmalonic acid: metabolite succinate/methylmalonic acid; for uridine: metabolite uridine; for xanthosine: metabolite xanthosine

SMILES: Cc1ccc(N2C3c4ccccc4N(S(=O)(=O)c4ccc(C)cc4)C2c2ccccc2N3S(=O)(=O)c2ccc(C)cc2)cc1 [MMV007160]
EC50 (P. falciparum): 24.8 nM
Acetyllysine [1]: 0.3548
N-acetyl-L-ornithine [1]: 0.3325
N-carbamoyl-L-aspartate [1]: 1.35
NADPH [1]: 0.1135
dAMP [1]: 0.01944
dCMP [1]: 0.09265
dTDP [1]: 0.2488
dTMP [1]: 0.1305
dTTP [1]: 0.2593
dihydroorotate [1]: 1.082
orotate [1]: 0.8469
DLH [1]: 0.1334
DLS/SDL/SID [1]: 0.2278
PD [1]: -0.1641
PEE [1]: -0.1118
PVNF [1]: 0.2167
3-phosphoglycerate [1]: 0.1652
ADP-D-glucose [1]: -0.01319
ATP [1]: 0.3343
CDP [1]: 0.1565
D-sedoheptulose-1/7-phosphate [1]: 0.1973
FAD [1]: -0.002001
GMP [1]: 0.2649
NAD+ [1]: 0
NADP+ [1]: 0.07922
Octoluse Bisphosphate [1]: 0.295
Pyroglutamic acid [1]: 0.3777
UDP-D-glucose [1]: 0.05012
UDP-D-glucuronate [1]: 0.1524
UDP-N-acetyl-glucosamine [1]: -0.001304
UDP [1]: 0.1082
UMP [1]: 0.008735
UTP [1]: 0.1487
a-ketoglutarate [1]: 0.5892
citrate/isocitrate [1]: 0.4078
cytidine [1]: 0.08232
dATP [1]: 0.1879
dGMP/AMP [1]: 0.0905
fumarate [1]: 0.3202
glucose-1/6-phosphate [1]: 0.8192
glycerate [1]: 0.7953
guanine [1]: 0.3293
guanosine [1]: 0.8873
hypoxanthine [1]: 0.7164
indole [1]: 0.6321
inosine [1]: 0.395
2_3-Diphosphoglyceric acid [1]: 0.1996
4-phosphopantothenate [1]: 0.1099
6-phospho-D-gluconate [1]: 0.1949
FMN [1]: 0.06109
IMP [1]: -0.03231
Pyrophosphate [1]: 0.1406
Sedoheptoluse bisphosphate [1]: 0.1591
cyclic-AMP [1]: 0.1479
glutathione disulfide [1]: 0.15
lactate [1]: 0.5915
myo-inositol [1]: 0.754
nicotinate [1]: 0.5248
ornithine [1]: 0.05899
phosphoenolpyruvate [1]: 0.1975
pyruvate [1]: -0.02541
ribose-phosphate [1]: -0.3937
sarcosine/alanine [1]: 0.2516
sn-glycerol-3-phosphate [1]: -0.6224
succinate/methylmalonic acid [1]: 0.03261
uridine [1]: 0.5939
xanthosine [1]: 0.5985

EC50 (P. falciparum): 196 nM
SMILES: CCCN(CCC)CC(O)COc1ccccc1C(=O)Nc1ccccc1 (stereo not drawn) [MMV006455]
Acetyllysine [1]: -1.84
N-acetyl-L-ornithine [1]: -1.412
N-carbamoyl-L-aspartate [1]: -1.358
NADPH [1]: 1.245
dAMP [1]: 1.1553
dCMP [1]: -0.6709
dTDP [1]: 0.7128
dTMP [1]: 1.286
dTTP [1]: -0.4381
dihydroorotate [1]: -1.042
orotate [1]: -1.326
DLH [1]: -3.333
DLS/SDL/SID [1]: -1.242
PD [1]: -1.741
PEE [1]: -6.259
PVNF [1]: -1.503
3-phosphoglycerate [1]: 0.4787
ADP-D-glucose [1]: 0.3541
ATP [1]: 0.3304
CDP [1]: 0.5091
D-sedoheptulose-1/7-phosphate [1]: 0.2206
FAD [1]: 0.7675
GMP [1]: -0.1404
NAD+ [1]: 0.6496
NADP+ [1]: 1.103
Octoluse Bisphosphate [1]: 0.1196
Pyroglutamic acid [1]: -0.5503
UDP-D-glucose [1]: 0.16
UDP-D-glucuronate [1]: -0.0808
UDP-N-acetyl-glucosamine [1]: 0.351
UDP [1]: 0.8505
UMP [1]: -0.5223
UTP [1]: -1.889
a-ketoglutarate [1]: -0.6936
citrate/isocitrate [1]: -1.1034
cytidine [1]: 1.29
dATP [1]: -1.015
dGMP/AMP [1]: 0.4722
fumarate [1]: -1.1903
glucose-1/6-phosphate [1]: 2.348
glycerate [1]: 0.5071
guanine [1]: 0.09569
guanosine [1]: -0.9351
hypoxanthine [1]: 0.1926
indole [1]: -0.2645
inosine [1]: 0.3717
2_3-Diphosphoglyceric acid [1]: 0.5499
4-phosphopantothenate [1]: 0.373
6-phospho-D-gluconate [1]: 0.458
FMN [1]: 0.8429
IMP [1]: 0.8206
Pyrophosphate [1]: -0.6263
Sedoheptoluse bisphosphate [1]: 0.2316
cyclic-AMP [1]: 0.1549
glutathione disulfide [1]: 0.487
lactate [1]: 1.338
myo-inositol [1]: 3.347
nicotinate [1]: 0.09812
ornithine [1]: -0.2237
phosphoenolpyruvate [1]: 0.01215
pyruvate [1]: 0.467
ribose-phosphate [1]: -0.04809
sarcosine/alanine [1]: -0.7349
sn-glycerol-3-phosphate [1]: -0.3619
succinate/methylmalonic acid [1]: -0.7549
uridine [1]: 0.2304
xanthosine [1]: -2.143

EC50 (P. falciparum): 283 nM
SMILES: COc1ccc2c(c1)OC(O)(C(F)(F)C(F)(F)F)CC2=O (stereo not drawn) [MMV007839]
Acetyllysine [1]: -0.1495
N-acetyl-L-ornithine [1]: -0.3633
N-carbamoyl-L-aspartate [1]: -1.795
NADPH [1]: -0.4001
dAMP [1]: -1.537
dCMP [1]: -0.8612
dTDP [1]: -1.865
dTMP [1]: -1.855
dTTP [1]: -0.1915
dihydroorotate [1]: -1.4167
orotate [1]: -2.224
DLH [1]: -0.6186
DLS/SDL/SID [1]: -1.11
PD [1]: 0.5838
PEE [1]: -0.1635
PVNF [1]: -0.3342
3-phosphoglycerate [1]: 0.9102
ADP-D-glucose [1]: -0.2
ATP [1]: -0.07659
CDP [1]: -1.957
D-sedoheptulose-1/7-phosphate [1]: -0.1553
FAD [1]: -0.4884
GMP [1]: -0.7332
NAD+ [1]: -0.1711
NADP+ [1]: -0.2719
Octoluse Bisphosphate [1]: 0.7306
Pyroglutamic acid [1]: 0.1304
UDP-D-glucose [1]: -0.2042
UDP-D-glucuronate [1]: -0.2026
UDP-N-acetyl-glucosamine [1]: -0.2915
UDP [1]: -2.077
UMP [1]: -0.8849
UTP [1]: -0.5295
a-ketoglutarate [1]: -0.1816
citrate/isocitrate [1]: 0.3799
cytidine [1]: 0.004906
dATP [1]: -0.1041
dGMP/AMP [1]: -1.779
fumarate [1]: -0.2064
glucose-1/6-phosphate [1]: -0.5084
glycerate [1]: 3.453
guanine [1]: -0.7539
guanosine [1]: -0.466
hypoxanthine [1]: 0.3062
indole [1]: 0.0845
inosine [1]: 0.6443
2_3-Diphosphoglyceric acid [1]: 0.2433
4-phosphopantothenate [1]: -0.5485
6-phospho-D-gluconate [1]: 0.05032
FMN [1]: -0.6664
IMP [1]: -0.6059
Pyrophosphate [1]: 0.1105
Sedoheptoluse bisphosphate [1]: 0.5834
cyclic-AMP [1]: -1.0489
glutathione disulfide [1]: -0.5477
lactate [1]: 0.3101
myo-inositol [1]: 0.232
nicotinate [1]: 0.1131
ornithine [1]: 0.4692
phosphoenolpyruvate [1]: 1.103
pyruvate [1]: 2.0227
ribose-phosphate [1]: 0.6152
sarcosine/alanine [1]: 0.4418
sn-glycerol-3-phosphate [1]: 0.2795
succinate/methylmalonic acid [1]: -0.36
uridine [1]: -0.244
xanthosine [1]: -0.1676
